Measured values reported in patent publication US12679836B2, “4H-pyrrolo[3,2-c]pyridin-4-one compounds” (Bayer Aktiengesellschaft, priority 2019, dated 2026).
Where two headings read alike, the source gives them in different places.

Columns and labels:
[1] = molecular target: T1, EGFR with insertion of SVD between D770 and N771 (EGFR ins SVD) (Homo sapiens, UniProt P00533, DUP768-770); test: Exon20-Mutant-EGFR(D770_N771insSVD) kinase assay (TR-FRET); type: biochemical; conditions: 2 mM ATP, several values per example where printed
T1 construct: made in house; host or cells: Sf9 insect cells (baculovirus)
T1 sequence (P00533 with tags, fused parts or gaps DUP768-770): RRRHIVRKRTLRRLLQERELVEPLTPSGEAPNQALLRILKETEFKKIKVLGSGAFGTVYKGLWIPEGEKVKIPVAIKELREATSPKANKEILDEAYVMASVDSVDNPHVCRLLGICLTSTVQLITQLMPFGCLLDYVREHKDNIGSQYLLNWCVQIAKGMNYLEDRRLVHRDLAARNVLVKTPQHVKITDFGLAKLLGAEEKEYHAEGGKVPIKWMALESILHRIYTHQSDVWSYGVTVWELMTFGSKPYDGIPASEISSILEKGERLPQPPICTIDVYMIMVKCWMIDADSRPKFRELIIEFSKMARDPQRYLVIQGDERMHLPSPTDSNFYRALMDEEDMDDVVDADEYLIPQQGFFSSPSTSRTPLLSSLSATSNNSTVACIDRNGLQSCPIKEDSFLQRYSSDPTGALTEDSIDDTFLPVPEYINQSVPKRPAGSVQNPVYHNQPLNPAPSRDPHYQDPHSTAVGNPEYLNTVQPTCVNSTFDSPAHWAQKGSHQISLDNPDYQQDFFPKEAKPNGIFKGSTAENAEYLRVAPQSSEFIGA

[2] = molecular target: T2, Bub1 (Homo sapiens, UniProt O43683); test: Bub1 TR-FRET high ATP kinase assay; type: biochemical; conditions: 2 mM ATP
T2 construct: catalytic domain of human Bub1 (amino acids 704-1085); His6 (N); made in house; host or cells: Hi5 insect cells
T2 sequence (O43683 704-1085): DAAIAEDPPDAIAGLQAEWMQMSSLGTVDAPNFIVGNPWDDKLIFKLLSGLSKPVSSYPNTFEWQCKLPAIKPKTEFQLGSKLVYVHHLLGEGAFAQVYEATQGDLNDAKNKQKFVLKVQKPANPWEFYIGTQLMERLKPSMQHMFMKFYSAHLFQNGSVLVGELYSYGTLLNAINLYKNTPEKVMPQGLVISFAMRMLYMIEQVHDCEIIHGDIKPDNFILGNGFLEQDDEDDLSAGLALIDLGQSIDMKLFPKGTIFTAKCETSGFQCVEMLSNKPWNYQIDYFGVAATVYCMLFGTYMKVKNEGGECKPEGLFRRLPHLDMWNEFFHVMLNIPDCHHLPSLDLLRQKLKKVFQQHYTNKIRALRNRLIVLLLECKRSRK
How it was run: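 Recombinant His6-tagged human Bub1 catalytic domain (aa 704-1085), from Hi5 insect cells, phosphorylating a biotinylated peptide substrate at high ATP concentration. TR-FRET read-out.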

[3] = molecular target: Ba/F3-EGFR-insSVD cells (Homo sapiens, UniProt P00533, DUP768-770, cells depend on it); test: Ba/F3 cell survival assay (Cell Titer-Glo), EGFR-insSVD; type: cell-based; conditions: without IL-3, with 10 ng/mL EGF, 48 h; read-out: BA/F3 (insSVD) IC50
Ba/F3-EGFR-insSVD cells, sequence (P00533 with tags, fused parts or gaps DUP768-770): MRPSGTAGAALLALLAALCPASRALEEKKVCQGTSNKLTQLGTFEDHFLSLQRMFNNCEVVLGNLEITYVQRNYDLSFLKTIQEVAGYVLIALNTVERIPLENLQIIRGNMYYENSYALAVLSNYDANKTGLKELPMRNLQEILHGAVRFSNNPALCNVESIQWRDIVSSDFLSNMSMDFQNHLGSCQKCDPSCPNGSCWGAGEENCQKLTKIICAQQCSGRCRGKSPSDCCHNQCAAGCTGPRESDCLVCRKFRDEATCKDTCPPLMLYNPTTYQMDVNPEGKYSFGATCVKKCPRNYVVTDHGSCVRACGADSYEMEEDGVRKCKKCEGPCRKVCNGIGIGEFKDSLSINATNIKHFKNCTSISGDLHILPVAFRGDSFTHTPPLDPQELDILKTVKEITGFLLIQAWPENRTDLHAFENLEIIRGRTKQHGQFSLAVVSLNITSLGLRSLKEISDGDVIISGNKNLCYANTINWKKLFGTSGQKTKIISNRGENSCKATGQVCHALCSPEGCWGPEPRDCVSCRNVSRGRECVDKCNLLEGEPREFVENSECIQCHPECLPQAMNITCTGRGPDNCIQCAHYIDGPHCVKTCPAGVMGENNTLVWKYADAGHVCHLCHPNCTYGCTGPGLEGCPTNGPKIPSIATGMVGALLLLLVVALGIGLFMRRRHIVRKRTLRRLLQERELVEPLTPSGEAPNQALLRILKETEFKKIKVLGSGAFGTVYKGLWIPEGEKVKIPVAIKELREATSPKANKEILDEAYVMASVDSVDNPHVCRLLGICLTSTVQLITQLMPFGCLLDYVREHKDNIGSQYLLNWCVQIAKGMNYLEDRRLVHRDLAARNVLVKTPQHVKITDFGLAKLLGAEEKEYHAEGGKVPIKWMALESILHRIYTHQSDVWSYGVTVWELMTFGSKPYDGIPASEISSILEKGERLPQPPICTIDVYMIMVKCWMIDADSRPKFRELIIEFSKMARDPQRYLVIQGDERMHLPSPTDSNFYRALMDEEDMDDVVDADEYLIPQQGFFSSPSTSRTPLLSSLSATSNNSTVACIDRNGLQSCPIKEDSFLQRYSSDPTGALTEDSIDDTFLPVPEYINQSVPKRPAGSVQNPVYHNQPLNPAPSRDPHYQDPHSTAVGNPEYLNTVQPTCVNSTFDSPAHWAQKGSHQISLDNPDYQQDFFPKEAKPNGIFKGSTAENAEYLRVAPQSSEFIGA
How it was run: (§1)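 Ba/F3 cells stably expressing WT EGFR or EGFR-insSVD from retroviral transduction were grown without IL-3 on 10 ng/mL EGF. Cells were plated at 4000 cells/well, treated with compound for 48 h at 37° C, and viability was read by CellTiter-Glo luminescence.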

[4] = molecular target: Ba/F3-EGFR-WT cells (Homo sapiens, UniProt P00533); test: Ba/F3 cell survival assay (Cell Titer-Glo), WT EGFR; type: cell-based; conditions: without IL-3, with 10 ng/mL EGF, 48 h; read-out: BA/F3 (wild type) IC50
Ba/F3-EGFR-WT cells, sequence (P00533 whole entry, change not shown): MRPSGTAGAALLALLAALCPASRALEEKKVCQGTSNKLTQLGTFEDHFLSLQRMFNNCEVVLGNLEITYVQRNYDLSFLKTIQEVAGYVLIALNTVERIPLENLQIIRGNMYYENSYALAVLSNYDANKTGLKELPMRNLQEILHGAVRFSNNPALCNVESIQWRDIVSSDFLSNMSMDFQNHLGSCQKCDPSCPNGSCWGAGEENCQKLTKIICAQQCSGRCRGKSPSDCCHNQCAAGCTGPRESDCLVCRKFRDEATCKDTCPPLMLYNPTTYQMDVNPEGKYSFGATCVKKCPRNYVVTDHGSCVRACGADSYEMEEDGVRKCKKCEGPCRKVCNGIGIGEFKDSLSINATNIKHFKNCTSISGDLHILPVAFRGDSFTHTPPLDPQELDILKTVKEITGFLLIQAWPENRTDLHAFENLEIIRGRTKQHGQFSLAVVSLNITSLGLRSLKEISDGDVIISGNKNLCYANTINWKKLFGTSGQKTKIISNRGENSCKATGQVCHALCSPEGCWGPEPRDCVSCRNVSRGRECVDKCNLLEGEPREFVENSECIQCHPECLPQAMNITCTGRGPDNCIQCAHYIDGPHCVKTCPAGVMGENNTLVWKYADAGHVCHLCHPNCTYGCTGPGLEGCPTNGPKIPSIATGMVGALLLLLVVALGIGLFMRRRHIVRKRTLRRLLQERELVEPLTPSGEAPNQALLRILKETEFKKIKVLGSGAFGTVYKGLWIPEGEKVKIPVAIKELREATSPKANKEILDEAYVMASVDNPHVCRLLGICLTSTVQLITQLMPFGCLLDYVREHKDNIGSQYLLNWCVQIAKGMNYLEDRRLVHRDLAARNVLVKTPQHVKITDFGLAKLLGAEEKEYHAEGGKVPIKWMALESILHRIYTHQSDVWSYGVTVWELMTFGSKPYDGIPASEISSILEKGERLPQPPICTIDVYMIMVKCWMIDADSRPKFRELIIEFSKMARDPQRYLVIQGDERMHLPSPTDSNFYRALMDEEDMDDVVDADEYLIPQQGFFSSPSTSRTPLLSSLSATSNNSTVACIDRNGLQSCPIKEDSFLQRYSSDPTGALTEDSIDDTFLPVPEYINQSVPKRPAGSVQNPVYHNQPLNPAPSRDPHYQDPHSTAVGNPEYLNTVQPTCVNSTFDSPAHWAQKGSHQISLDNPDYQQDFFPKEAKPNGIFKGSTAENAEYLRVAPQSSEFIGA
How it was run: as §1

[5] = Bub1 high ATP (2 mM) IC50 [mol/l]
[6] = read-out: Bub1 high ATP (2 mM) IC50 [mol/l]

Compound	mutEGFR (D770_N771insSVD) kinase assay IC50 [1]	IC50 [2, 5]	IC50 [2, 6]	GI50 [3]	GI50 [4]
COc1c(Cl)cccc1Nc1c(-c2ccncc2O[C@H](C)C2COCCO2)[nH]c2c1C(=O)NCC2 (single isomer, unassigned) [Example 60]	0.305 nM	16400 nM		52.7 nM	946 nM
COc1c(Cl)cccc1Nc1c(-c2ccncc2OC(C)C2CN(C)CCO2)[nH]c2c1C(=O)NCC2 (centres unmarked) [Example 71, 3-(3-chloro-2-methoxyanilino)-2-[3-({1-[4-methylmorpholin-2-yl]ethyl}oxy)pyridin-4-yl]-1,5,6,7-tetrahydro-4H-pyrrolo[3,2-c]pyridin-4-one]	0.405 nM	> 20000 nM		132 nM	1420 nM
COc1c(Cl)cc(F)cc1Nc1c(-c2ccncc2OCC2CN(C)CCO2)[nH]c2c1C(=O)NCC2 (centres unmarked) [Example 18, 3-(3-chloro-5-fluoro-2-methoxyanilino)-2-(3-{[4-methylmorpholin-2-yl]methoxy}pyridin-4-yl)-1,5,6,7-tetrahydro-4H-pyrrolo[3,2-c]pyridin-4-one]	0.147 nM	> 20000 nM		27.9 nM	579 nM
CCc1c(F)cccc1Nc1c(-c2ccncc2OCC2COC(C)(C)CO2)[nH]c2c1C(=O)NCC2 (single isomer, unassigned) [Example 70, 2-(3-{[5,5-dimethyl-1,4-dioxan-2-yl]methoxy}pyridin-4-yl)-3-(2-ethyl-3-fluoroanilino)-1,5,6,7-tetrahydro-4H-pyrrolo[3,2-c]pyridin-4-one]	0.168 nM		> 20000 nM	67.9 nM	714 nM
Cc1c(F)cccc1Nc1c(-c2ccncc2OCC2CN(C)CCO2)[nH]c2c1C(=O)NCC2 (single isomer, unassigned) [Example 63, 3-(3-fluoro-2-methylanilino)-2-(3-{[4-methylmorpholin-2-yl]methoxy}pyridin-4-yl)-1,5,6,7-tetrahydro-4H-pyrrolo[3,2-c]pyridin-4-one]	0.265 nM	> 20000 nM		147 nM	1370 nM
COc1c(Cl)cccc1Nc1c(-c2ccncc2OC(C)C2CN(C)CCO2)[nH]c2c1C(=O)NCC2 (single isomer, unassigned) [Example 75, 3-(3-chloro-2-methoxyanilino)-2-[3-({1-[-4-methylmorpholin-2-yl]ethyl}oxy)pyridin-4-yl]-1,5,6,7-tetrahydro-4H-pyrrolo[3,2-c]pyridin-4-one]	4.99 nM		> 20000 nM	571 nM	3900 nM
COc1c(Cl)cc(F)cc1Nc1c(-c2ccncc2OC[C@@H]2CN(C)CCO2)[nH]c2c1C(=O)NCC2 [Example 27, 3-(3-chloro-5-fluoro-2-methoxyanilino)-2-(3-{[(2S)-4-methylmorpholin-2-yl]methoxy}pyridin-4-yl)-1,5,6,7-tetrahydro-4H-pyrrolo[3,2-c]pyridin-4-one]	0.118 nM	> 20000 nM		16.9 nM	502 nM
COc1c(F)cccc1Nc1c(-c2ccncc2OCCC2COCCO2)[nH]c2c1C(=O)NCC2 (single isomer, unassigned) [Example 35, 2-(3-{2-[1,4-dioxan-2-yl]ethoxy}pyridin-4-yl)-3-(3-fluoro-2-methoxyanilino)-1,5,6,7-tetrahydro-4H-pyrrolo[3,2-c]pyridin-4-one]	0.0873 nM	> 20000 nM		21.5 nM	261 nM

The next lines start with results.

mutEGFR (D770_N771insSVD) kinase assay IC50 [1]	IC50 [2, 5]	IC50 [2, 6]	Compound	GI50 [3]	GI50 [4]
0.269 nM	14000 nM		COc1c(Cl)cccc1Nc1c(-c2ccncc2O[C@@H](C)C2COCCO2)[nH]c2c1C(=O)NCC2 (mixture of isomers) [Example 57, 3-(3-chloro-2-methoxyanilino)-2-{3-[(1S)-1-(1,4-dioxan-2-yl)ethoxy]pyridin-4-yl}-1,5,6,7-tetrahydro-4H-pyrrolo[3,2-c]pyridin-4-one]	28 nM	539 nM
0.235 nM	12200 nM		COc1c(Cl)cccc1Nc1c(-c2ccncc2O[C@@H](C)C2COCCO2)[nH]c2c1C(=O)NCC2 (single isomer, unassigned) [Example 59, 3-(3-chloro-2-methoxyanilino)-2-{3-[(1 S)-1-(1,4-dioxan-2-yl)ethoxy]pyridin-4-yl}-1,5,6,7-tetrahydro-4H-pyrrolo[3,2-c]pyridin-4-one]	18.6 nM	336 nM
0.136 nM	1520 nM		Cc1c(Cl)cccc1Nc1c(-c2ccncc2OC[C@H]2COCCO2)[nH]c2c1C(=O)NCC2 (single isomer, unassigned) [Example 51]	46.7 nM	742 nM
0.0891 nM	4230 nM		O=C1NCCc2[nH]c(-c3ccncc3OCC3COCCO3)c(Nc3cccc(Cl)c3Cl)c21 (single isomer, unassigned) [Example 9, 3-(2,3-Dichloroanilino)-2-{3-[(1,4-dioxan-2-yl)methoxy]pyridin-4-yl}-1,5,6,7-tetrahydro-4H-pyrrolo[3,2-c]pyridin-4-one]	32.7 nM	303 nM
0.426 nM	1360 nM		CCc1c(Cl)cccc1Nc1c(-c2ccncc2OC[C@@H]2COCCO2)[nH]c2c1C(=O)NCC2 (single isomer, unassigned) [Example 53]	21.3 nM	408 nM
0.669 nM	1780 nM		Cc1c(Cl)cccc1Nc1c(-c2ccncc2OCC2COCCO2)[nH]c2c1C(=O)NCC2 (centres unmarked) [Example 10, 3-(3-chloro-2-methylanilino)-2-{3-[(1,4-dioxan-2-yl)methoxy]pyridin-4-yl}-1,5,6,7-tetrahydro-4H-pyrrolo[3,2-c]pyridin-4-one]	11.1 nM	496 nM
0.115 nM	8620 nM		O=C1NCCc2[nH]c(-c3ccncc3OCC3COCCO3)c(Nc3cccc(F)c3CC(F)F)c21 (centres unmarked) [Example 40, 3-[2-(2,2-difluoroethyl)-3-fluoro-anilino]-2-[3-(1,4-dioxan-2-ylmethoxy)-4-pyridyl]-1,5,6,7-tetrahydropyrrolo[3,2-c]pyridin-4-one]	119 nM	867 nM
0.286 nM	4330 nM		COc1c(Cl)cccc1Nc1c(-c2ccncc2OC[C@H]2COCCN2C)[nH]c2c1C(=O)NCC2 [Example 11, 3-(3-chloro-2-methoxyanilino)-2-(3-{[(3R)-4-methylmorpholin-3-yl]methoxy}pyridin-4-yl)-1,5,6,7-tetrahydro-4H-pyrrolo[3,2-c]pyridin-4-one]	18.7 nM	701 nM
0.137 nM	10600 nM		O=C1NCCc2[nH]c(-c3ccncc3OCC3COCCO3)c(Nc3cccc(Cl)c3Cl)c21 (centres unmarked) [Example 7, 3-(2,3-dichloroanilino)-2-{3-[(1,4-dioxan-2-yl)methoxy]pyridin-4-yl}-1,5,6,7-tetrahydro-4H-pyrrolo[3,2-c]pyridin-4-one]	18 nM	292 nM
